# Reference: ChEMBL document CHEMBL1909514, “Imidazo[2,1-b]thiazole guanylhydrazones as RSK2 inhibitors” (Eur J Med Chem, 2011)
# Active and inactive are the calls of the source. The rule behind the calls is not given here.
# Legend:
# [1] = target: T1, Aurora kinase A (Homo sapiens) (UniProt O14965); test: Inhibition of Aurora kinase A assessed as inhibition of substrate phosphorylation using fluorescent peptide substrate up to 100 uM by microplate reader assay
# T1 sequence (whole entry): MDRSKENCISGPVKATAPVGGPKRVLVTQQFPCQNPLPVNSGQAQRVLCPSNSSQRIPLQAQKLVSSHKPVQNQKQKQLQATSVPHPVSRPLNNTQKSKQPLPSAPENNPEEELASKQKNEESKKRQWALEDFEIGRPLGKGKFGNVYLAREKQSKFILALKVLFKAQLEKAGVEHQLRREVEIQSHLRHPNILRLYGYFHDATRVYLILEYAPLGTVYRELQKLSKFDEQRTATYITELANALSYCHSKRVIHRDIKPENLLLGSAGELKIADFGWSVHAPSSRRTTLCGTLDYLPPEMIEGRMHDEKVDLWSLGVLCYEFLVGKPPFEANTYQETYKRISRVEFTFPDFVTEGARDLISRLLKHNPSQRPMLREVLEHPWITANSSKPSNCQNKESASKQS
# [2] = system: BT-549; test: Growth inhibition of human BT549 cells after 48 hrs by SRB assay; type: functional; conditions: BT-549, 48 h
# [3] = Growth inhibition of human Hs 578T cells after 48 hrs by SRB assay; type: functional
# [4] = system: MDA-MB-231; test: Growth inhibition of human MDA-MB-231 cells after 48 hrs by SRB assay; type: functional; conditions: MDA-MB-231, 48 h
# [5] = system: DU-145; test: Growth inhibition of human DU145 cells after 48 hrs by SRB assay; type: functional; conditions: DU-145, 48 h
# [6] = system: PC-3; test: Growth inhibition of human PC3 cells after 48 hrs by SRB assay; type: functional; conditions: PC-3, 48 h
# [7] = system: TK-10; test: Growth inhibition of human TK10 cells after 48 hrs by SRB assay; type: functional; conditions: TK-10, 48 h
# [8] = system: CAKI-1; test: Growth inhibition of human Caki1 cells after 48 hrs by SRB assay; type: functional; conditions: CAKI-1, 48 h
# [9] = system: SK-OV-3; test: Growth inhibition of human SKOV3 cells after 48 hrs by SRB assay; type: functional; conditions: SK-OV-3, 48 h
# [10] = system: NCI/ADR-RES; test: Growth inhibition of human NCI/ADR-RES cells after 48 hrs by SRB assay; type: functional
# [11] = system: OVCAR-4; test: Growth inhibition of human OVCAR4 cells after 48 hrs by SRB assay; type: functional; conditions: OVCAR-4, 48 h
# [12] = system: OVCAR-3; test: Growth inhibition of human OVCAR3 cells after 48 hrs by SRB assay; type: functional; conditions: OVCAR-3, 48 h
# [13] = system: UACC-62; test: Growth inhibition of human UACC62 cells after 48 hrs by SRB assay; type: functional; conditions: UACC-62, 48 h
# [14] = system: SK-MEL-28; test: Growth inhibition of human SK-MEL-28 cells after 48 hrs by SRB assay; type: functional; conditions: SK-MEL-28, 48 h
# [15] = system: Malme-3M; test: Growth inhibition of human MALME-3M cells after 48 hrs by SRB assay; type: functional
# [16] = system: LOX IMVI; test: Growth inhibition of human LOXIMVI cells after 48 hrs by SRB assay; type: functional
# [17] = system: SNB-75; test: Growth inhibition of human SNB75 cells after 48 hrs by SRB assay; type: functional; conditions: SNB-75, 48 h
# [18] = system: SF-268; test: Growth inhibition of human SF268 cells after 48 hrs by SRB assay; type: functional; conditions: SF-268, 48 h
# [19] = system: SF-295; test: Growth inhibition of human SF295 cells after 48 hrs by SRB assay; type: functional; conditions: SF-295, 48 h
# [20] = system: NCI-H460; test: Growth inhibition of human NCI-H460 cells after 48 hrs by SRB assay; type: functional; conditions: NCI-H460, 48 h
# [21] = system: NCI-H23; test: Growth inhibition of human NCI-H23 cells after 48 hrs by SRB assay; type: functional; conditions: NCI-H23, 48 h
# [22] = system: HOP-92; test: Growth inhibition of human HOP92 cells after 48 hrs by SRB assay; type: functional; conditions: HOP-92, 48 h
# [23] = system: EKVX; test: Growth inhibition of human EKVX cells after 48 hrs by SRB assay; type: functional
# [24] = system: A549; test: Growth inhibition of human A549 cells after 48 hrs by SRB assay; type: functional; conditions: A549, 48 h
# [25] = system: MOLT-4; test: Growth inhibition of human MOLT4 cells after 48 hrs by SRB assay; type: functional; conditions: MOLT-4, 48 h
# [26] = system: K562; test: Growth inhibition of human K562 cells after 48 hrs by SRB assay; type: functional; conditions: K562, 48 h
# [27] = target: T2, Serine/threonine-protein kinase Chk2 (Homo sapiens, UniProt O96017)
# [28] = target: Aurora kinase A (Homo sapiens, UniProt O14965)
# [29] = target: T2, Serine/threonine-protein kinase Chk2; remark: listed apart in the source
# Description: Inhibition of CHK2 assessed as inhibition of substrate phosphorylation using fluorescent peptide substrate by microplate reader assay
# [30] = target: Ribosomal protein S6 kinase alpha-3 (Homo sapiens, UniProt P51812)
# [31] = read-out: pLC50 (the source's name) (converted)
# T2 sequence (O96017 whole entry): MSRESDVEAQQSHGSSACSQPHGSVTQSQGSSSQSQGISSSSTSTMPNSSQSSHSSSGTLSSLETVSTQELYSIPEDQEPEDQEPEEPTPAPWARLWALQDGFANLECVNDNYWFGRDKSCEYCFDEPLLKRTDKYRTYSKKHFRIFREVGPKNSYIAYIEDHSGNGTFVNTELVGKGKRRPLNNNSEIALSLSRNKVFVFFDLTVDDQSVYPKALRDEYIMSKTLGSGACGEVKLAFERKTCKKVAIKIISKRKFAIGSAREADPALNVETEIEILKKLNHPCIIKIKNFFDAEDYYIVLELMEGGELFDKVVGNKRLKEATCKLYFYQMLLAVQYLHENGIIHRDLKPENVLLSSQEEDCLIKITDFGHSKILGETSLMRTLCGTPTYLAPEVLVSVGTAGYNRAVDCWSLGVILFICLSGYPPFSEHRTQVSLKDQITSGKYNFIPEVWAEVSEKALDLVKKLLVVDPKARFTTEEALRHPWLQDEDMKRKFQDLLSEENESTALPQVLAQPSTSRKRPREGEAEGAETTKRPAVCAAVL
# Chain of Ribosomal protein S6 kinase alpha-3 (P51812 whole entry): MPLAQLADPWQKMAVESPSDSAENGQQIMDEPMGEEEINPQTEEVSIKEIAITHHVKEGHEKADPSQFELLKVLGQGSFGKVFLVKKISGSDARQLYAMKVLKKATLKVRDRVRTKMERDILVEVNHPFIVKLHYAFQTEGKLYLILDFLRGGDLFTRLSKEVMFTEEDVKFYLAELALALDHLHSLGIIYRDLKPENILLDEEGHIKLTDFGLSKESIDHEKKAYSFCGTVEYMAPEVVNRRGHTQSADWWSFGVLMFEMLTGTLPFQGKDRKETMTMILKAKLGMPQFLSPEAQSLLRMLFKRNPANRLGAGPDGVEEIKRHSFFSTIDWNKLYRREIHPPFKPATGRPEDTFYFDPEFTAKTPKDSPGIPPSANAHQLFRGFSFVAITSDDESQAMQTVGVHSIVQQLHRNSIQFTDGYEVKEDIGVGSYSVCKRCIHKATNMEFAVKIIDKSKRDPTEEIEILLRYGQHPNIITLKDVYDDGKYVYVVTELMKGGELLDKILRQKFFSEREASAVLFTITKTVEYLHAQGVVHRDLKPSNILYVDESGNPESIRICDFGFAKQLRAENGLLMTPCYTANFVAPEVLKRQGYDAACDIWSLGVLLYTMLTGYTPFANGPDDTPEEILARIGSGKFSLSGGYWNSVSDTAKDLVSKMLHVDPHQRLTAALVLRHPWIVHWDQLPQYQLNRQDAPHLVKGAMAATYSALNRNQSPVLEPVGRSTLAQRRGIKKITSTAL
smiles,measurement,setting,value
N=C(N)N/N=C\c1c(-c2ccc([N+](=O)[O-])cc2)nc2sc(Br)cn12,inhibition,[1],inactive
same,GI50,[2],186 nM
same,CC50,[2]; [31],7240 nM
same,TGI,[2]; read-out: pTGI (converted),3630 nM
same,GI50,[3],288 nM
same,CC50,[3]; [31],3470 nM
same,TGI,[3]; read-out: pTGI (converted),933 nM
same,GI50,[4],275 nM
same,CC50,[4]; [31],3890 nM
same,TGI,[4]; read-out: pTGI (converted),851 nM
same,GI50,[5],200 nM
same,CC50,[5]; [31],813 nM
same,TGI,[5]; read-out: pTGI (converted),398 nM
same,GI50,[6],186 nM
same,CC50,[6]; [31],759 nM
same,TGI,[6]; read-out: pTGI (converted),380 nM
same,GI50,[7],269 nM
same,CC50,[7]; [31],4470 nM
same,TGI,[7]; read-out: pTGI (converted),1100 nM
same,GI50,[8],234 nM
same,CC50,[8]; [31],4790 nM
same,TGI,[8]; read-out: pTGI (converted),1070 nM
same,GI50,[9],148 nM
same,CC50,[9]; [31],5620 nM
same,TGI,[9]; read-out: pTGI (converted),4470 nM
same,GI50,[10],219 nM
same,CC50,[10]; [31],3550 nM
same,TGI,[10]; read-out: pTGI (converted),891 nM
same,GI50,[11],191 nM
same,CC50,[11]; [31],776 nM
same,TGI,[11]; read-out: pTGI (converted),380 nM
same,GI50,[12],204 nM
same,CC50,[12]; [31],724 nM
same,TGI,[12]; read-out: pTGI (converted),380 nM
same,GI50,[13],347 nM
same,CC50,[13]; [31],4570 nM
same,TGI,[13]; read-out: pTGI (converted),4470 nM
same,GI50,[14],191 nM
same,CC50,[14]; [31],676 nM
same,TGI,[14]; read-out: pTGI (converted),363 nM
same,GI50,[15],1000 nM
same,TGI,[15]; read-out: pTGI (converted),4170 nM
same,GI50,[16],191 nM
same,TGI,[16]; read-out: pTGI (converted),417 nM
same,GI50,[17],204 nM
same,CC50,[17]; [31],1290 nM
same,TGI,[17]; read-out: pTGI (converted),4680 nM
same,GI50,[18],219 nM
same,TGI,[18]; read-out: pTGI (converted),447 nM
same,GI50,[19],575 nM
same,CC50,[19]; [31],6310 nM
same,TGI,[19]; read-out: pTGI (converted),4470 nM
same,GI50,[20],229 nM
same,CC50,[20]; [31],1820 nM
same,TGI,[20]; read-out: pTGI (converted),501 nM
same,GI50,[21],389 nM
same,CC50,[21]; [31],3980 nM
same,TGI,[21]; read-out: pTGI (converted),4470 nM
same,GI50,[22],676 nM
same,CC50,[22]; [31],5130 nM
same,TGI,[22]; read-out: pTGI (converted),2630 nM
same,GI50,[23],1070 nM
same,CC50,[23]; [31],7410 nM
same,TGI,[23]; read-out: pTGI (converted),4470 nM
same,GI50,[24],182 nM
same,CC50,[24]; [31],6610 nM
same,TGI,[24]; read-out: pTGI (converted),347 nM
same,GI50,[25],195 nM
same,GI50,[26],40.7 nM
same,IC50,[27],1960 nM
same,IC50,[28],> 20000 nM
same,IC50,[29],88500 nM
same,IC50,[30],607 nM
